In general, pKd refers to −log10 of the Kd, conventionally taken in molar units. Low values mean a high Kd, high ones a low Kd.

The assay in a line: Binding affinity to HIV wild type integrase. Details: species or system Human immunodeficiency virus.

Each structure is given as a SMILES string. pKd: −log10 of the molar value.

`[3H]C([3H])([3H])n1c(N2CCCCS2(=O)=O)nc(C(=O)NCc2ccc(F)cc2)c(O)c1=O` showed a pKd of 7.68.

Values taken from ChEMBL document CHEMBL1156506, “Changes to the HIV long terminal repeat and to HIV integrase differentially impact HIV integrase assembly, activity, and the binding of strand transfer inhibitors” (J Biol Chem, 2007).
